According to patent US8044034B2, “Nanoparticle derivatives of gemcitabine” (Centre National de la Recherche Scientifique (C.N.R.S.), priority 2004, dated 2011):
Where two headings read alike, the source gives them in different places. Values belong to the compound of their own block, whether it stands above or below them.

Experiments:
[1] = Nanoparticle size by quasi-elastic light diffusion (Coulter N4MD nanosizer); type: physicochemical
Protocol: The size of the colloidal particles obtained in example 1 were monitored by quasi-elastic light diffusion using a nanosizer (Coulter® N4MD, Coulter Electronics, Hialeah, USA).
The colloidal suspensions were diluted in MilliQ® water so that the number of particles per ml was suitable for the measuring device.

two cell lines = test: Cytotoxic activity at different times in the presence and absence of inserts (MTT test); type: cell-based, human; conditions: 100 μM SQgem nanoparticles, inserts 0.02 μm, n=3
Protocol: The cytotoxic activity of SQgem at different times was also determined by incubating 100 μM SQgem nanoparticles on two cell lines in the presence and absence of inserts (0.02 μm) (MTT test) (n=3).

[2] = Surface tension at constant surface area (Wilhemy blade tensometer); type: physicochemical; conditions: aqueous solution with 10% ethanol
Protocol: The surface tension of an aqueous SQgem solution was measured at constant surface area at different concentrations using a Wilhemy blade tensometer and compared with that of a solution of gemcitabine (Gem) and 4-(N)-stearoylgemcitabine (C18gem) (Myhren F et al, Gemcitabine derivatives, US patent no. 2002/0042391).
To prepare the various dilutions of SQgem and C18gem, it was necessary to start from an ethanolic solution; the percentage of ethanol in the final solution was 10% (the presence of ethanol reduces the surface tension of water from 72 mN/m to about 50 mN/m).

MCF-7 = test: Cytotoxic activity, MTT test, 72 hours exposure; type: cell-based, human; conditions: concentration at which 50% of the cells are alive, read-out: CI50 (μM) after 72 hours MCF-7
Protocol: (§1) The cytotoxic activity of SQgem was evaluated on two human tumoral cell lines (KB3-1, cancer of the naso-pharynx and MCF-7, breast cancer) by exposure to SQgem for 72 hours, and compared with the activity of gemcitabine.
(§2) The lines were maintained in DMEM medium with 10% foetal calf serum, 2 mM glutamine, 50 mg/l antibiotics, at 37° C., 5% CO2, 95% humidity. The cells were seeded onto a 96 well plate in an amount of 1×10^4/well; after 24 hours, different dilutions of gemcitabine and SQgem particle were added and incubated for 72 hours. Cellular viability was then determined by the MTT test. The results are expressed as CI50, which is the concentration of the molecule at which 50% of the cells are alive.

KB3-1 = test: Cytotoxic activity, MTT test, 72 hours exposure; type: cell-based, human; conditions: for IC50: KB3-1 cells, 72 hours, MTT test, concentration at which 50% of the cells are alive, read-out: CI50 (μM) after 72 hours KB3-1
Protocol: as §1, §2

[3] = concentration in final suspension 1 mg/ml
[4] = concentration in final suspension 2 mg/ml
[5] = concentration in final suspension 4 mg/ml

- Mean hydrodynamic diameter / size of the nanoparticles ([1]; concentration not given): 152 nm
- Polydispersity index ([1]; concentration not given): 0.1
Compound: CC(C)=CCCC(C)=CCCC(C)=CCCC=C(C)CCC=C(C)CCC(=O)OC[C@@H]1CC[C@H](n2cnc3c(=O)[nH]cnc32)O1 [5′-squalenoyl-didanosine]

- Mean hydrodynamic diameter (nm) [1, 3]: 110.4±34.1 nm
- Polydispersity index [1, 3]: 0.168
Compound: CC(C)=CCCC(C)=CCCC(C)=CCCC=C(C)CCC=C(C)CCC(=O)Nc1ccn([C@@H]2O[C@H](CO)[C@@H](O)[C@@H]2O)c(=O)n1 [SQara-C, 4-(N)-squalenoylcytarabine]

- concentration at which the surface tension is reduced (nanoparticle formation) [2]: 4 µM
- Mean hydrodynamic diameter (nm) [1, 3]: 126.2 nm
- Polydispersity index [1, 3]: 0.26
- Mean hydrodynamic diameter (nm) [1, 4]: 150.4 nm
- Polydispersity index [1, 4]: 0.09
- Mean hydrodynamic diameter (nm) [1, 5]: 171.3 nm
- Polydispersity index [1, 5]: 0.08
Compound: CC(C)=CCCC(C)=CCCC(C)=CCCC=C(C)CCC=C(C)CCC(=O)Nc1ccn([C@@H]2O[C@H](CO)[C@@H](O)C2(F)F)c(=O)n1 [SQgem, 4-(N)-squalenoylgemcitabine]
- anti-cancer activity with inserts with respect to cytotoxicity tests in the absence of an insert (two cell lines): not reduced
- IC50 (MCF-7; MCF-7 cells): 4.8 ± 3.9 µM
- IC50 (KB3-1): 8.8 ± 4.1 µM
- times more cytotoxic than the gemcitabine molecule (KB3-1; from CI50 on KB3-1 and MCF-7, 72 hours): five to seven times more toxic

Compound: Nc1ccn([C@@H]2O[C@H](CO)[C@@H](O)C2(F)F)c(=O)n1 [Gemcitabine, 2′,2′-difluoro-2′-deoxycytidine]
- IC50 (MCF-7; Homo sapiens, MCF7, MCF-7 cells): 29 ± 13.9 µM
- IC50 (KB3-1; Homo sapiens, KB 3-1): 50.8 ± 49.8 µM

- Mean hydrodynamic diameter (nm) [1, 3]: 217.5 ± 37.9 nm
- Polydispersity index [1, 3]: 0.038
Compound: 4-(N)-squalenoyl acyclovir [SQACV]

- Mean hydrodynamic diameter / size of the nanoparticles ([1]; concentration not given): 150-170 nm
Compound: CC(C)=CCCC(C)=CCCC(C)=CCCC=C(C)CCC=C(C)CCC(=O)OC[C@H]1O[C@@H](n2cc(C)c(=O)[nH]c2=O)C[C@@H]1N=[N+]=[N-] [5′-squalenoyl-zidovudine, 3-azido-5-(5-methyl-2,4-dioxo-3,4-dihydro-2H-pyrimidin-1-yl)-tetrahydro-furan-2-yl-methyl (2S,3S,5R)-4,8,13,17,21-pentamethyl-docosa-4,8,12,16,20-pentaenoate]
